Measurements reported in patent publication US20040198831A1, “Remedial agent for arthrosis deformans” (priority 2001, published 2004).

Experiments:
[1] = system: model of OA in rabbits; details: reported in Inflamm Res 44, Suppl 2, S117-118 (1995); cited from earlier work
[2] = system: partial meniscectomy model in rabbits; experiment: partial meniscectomy model of osteoarthritis in rabbits (erosion area); assay type: in vivo, rabbit; details: female rabbits, 1, 3 and 10 mg/kg per day, administered twice a day, 7 days after operation, FIG. 1
Procedure: Efficiencies of the compounds in the present invention on osteoarthrosis were proven, for example, by an experiment of a partial meniscectomy model in rabbits.
Female rabbits (Kbs: NZW (Healthy)) were preliminarily bred for a week and subjected to ablative operation of meniscus by the following method.
Each animal was anesthetized by a subcutaneous injection of 2% parenteral celactal (0.05 ml/kg) to the poll and an intravenous injection of nembutal (20 mg/kg) to the marginal auricle. Their right knees were disinfected with Iodine tincture that dilutes five times with distilled water. If necessary, local anesthesia was performed by dropping 2% of parenteral xylocaine to incised part.
Then, skins and articular capsules outside knees of right hind legs were incised at right angle to patellar ligament, fibular collateral ligaments and sesamoid ligaments were transected. In that case, parenteral solution of bosmin was dropped for the arrest of hemorrhage. […]
After anesthesia by an intravenous injection of parenteral nembutal (40 mg/kg) to marginal auricle, the animals were made to die by venesection and gathered their right knees of joint part. […] After collecting all samples and masking them, their erosion areas were measured with a stereoscopic microscope. […]

[3] = system: rat; experiment: toxicity, single oral administration to rat; assay type: in vivo; details: oral administration to rat once
Procedure: It was considered that the toxicities of the compounds represented by the formula (I) could be very low and safe to use as a medicine. For example, the lowest lethal dose in oral administration of compound (II) to rat once was 2000 mg/kg or more.

| Structure (SMILES) | effect on a model of OA in rabbits [1] | inhibitory effect on erosion area of thigh bone [2] | lowest lethal dose [3] [mg/kg] |
| --- | --- | --- | --- |
| COc1ccc(S(=O)(=O)N(Cc2cccnc2)[C@@H](C(=O)NO)C(C)C)cc1.Cl [CGS-27023A, 2(R)-[N-(4-methoxyphenylsulfonyl)-N-(3-pyridylmethyl)amino]-3-methylbutanohydroxamic acid hydrochloride] | could be effect |  |  |
| C[C@@H](C[C@@H](CO)NC(=O)c1ccc(Oc2ccccc2)cc1)C(=O)NO [compound (II), N-hydroxy-5-hydroxy-2(S)-methyl-4(S)-(4-phenoxybenzoyl)aminopentanamide] |  | inhibitory effect | ≥ 2000 |
